Series [1] has as its system gastrointestinal bleeding. The experiment in a line: Guaiac test on fecal pellets after indomethacin. The class given is in vivo, C57BL/6J mice. Particulars: 10 mg/kg oral, following morning. Here is the method: For indomethacin experiments, animals were inoculated with blood sensor bacteria and fecal pellets were collected 6 hours later for luminescence analysis and CFU enumeration. Indomethacin (Sigma) solution was prepared by dissolving the compound in absolute ethanol to a concentration of 20 mg/mL. Immediately prior to mouse gavage, the indomethacin stock solution was diluted to 1.25 mg/mL in PBS and 0.2 mL of dilute indomethacin solution was administered to each animal (10 mg/kg). Preparation of indomethacin solution using this method was essential to ensure reliable and reproducible induction of gastrointestinal bleeding. The following morning, gastrointestinal bleeding was confirmed by performing a guaiac test (Hemoccult, Beckman Coulter) on fecal pellets from each animal. […] Subsequently, mice were again administered blood sensor bacteria and fecal pellets were collected 6 hours later for luminescence analysis and CFU enumeration.

Another series has as its system PL(HrtO). As to the kind of experiment: HrtR-mediated repression of PL(HrtO)-luxCDABE luminescence. The class given is cell-based, E. coli MG1655. Conditions: co-transformation of PL(HrtO)-luxCDABE with constitutively expressing HrtR construct. The procedure: For genetic circuit characterization, overnight cultures were diluted 1:100 in fresh LB and incubated with shaking at 37° C. for 2 hours. Cultures were removed from the incubator and 200 μL of culture was transferred to a 96-well plate containing various concentrations of inducer. The plate was returned to a shaking incubator at 37° C. Following 2 hours of incubation, luminescence was read using a BioTek Synergy H1 Hybrid Reader using a […] integration time and a sensitivity of 135. Luminescence values, measured in relative luminescence units (RLUs), were normalized by the optical density of the culture measured at 600 nm. For in vitro kinetic studies, subcultured cells were mixed with inducer in a 96-well plate and immediately placed in the plate reader set at 37° C. without shaking. Luminescence and absorbance was read at 5 minute intervals.

For the molecule `COc1ccc2c(c1)c(CC(=O)O)c(C)n2C(=O)c1ccc(Cl)cc1` [indomethacin], in series [1], the “guaiac test (gastrointestinal bleeding)” value was “guaiac positive”.

B1: HrtR: heme-regulated TetR-family transcriptional repressor from Lactococcus lactis (protein)
chain: MPKSTYFSLSDEKRKRVYDACLLEFQTHSFHEAKIMHIVKALDIPRGSFYQYFEDLKDSYYYILSQETVEIHDLFFNLLKEYPLEVALNKYKYLLLENLVNSPQYNLYKYRFLDWTYELERDWKPKGEVTVPARELDNPISQVLKSVIHNLVYRMFSENWDEQKFIETYDKEIKLLTEGLLNYVTESKK
modifications: Heme-responsive transcriptional repressor
notes: heme-regulated TetR-family transcriptional repressor from Lactococcus lactis
B1: the reduction in luminescence with PL(HrtO) is 4.4 fold.
